According to US20200325453A1, “METHOD FOR PRODUCING NAÏVE PLURIPOTENT STEM CELLS” (priority 2015, published 2020):

What was measured:
[1] = system: ESRRB; assay: ESRRB gene expression by qPCR, effect of Forskolin and A83-01 on making naïve (Example 4); type: cell-based, human; conditions: 201B7 cells; 10 μM Forskolin and 0.5 μM A83-01 added to 2iL+Go6983 medium
[2] = system: ESRRB; assay: ESRRB gene expression by qPCR, effect of Go6983 addition timing (Example 3); type: cell-based, human; conditions: 201B7 cells passage 1; KSR 2iLFA medium with Go6983 (5 μM) versus without; doxycycline added; low oxygen
Experimental: The iPS cells gene-introduced and cloned in “1.2 Generation of gene-introduced cell line” were dissociated into single cells by using a dissociation solution and TrypLE™ Select, and seeded in a 6-well plate at 1×10^5 cells/well in which MEF cells had been seeded as feeder. At this time, as a medium, 2iLFA+Go6983 medium shown in Table 1 (hereinafter, also abbreviated as “the medium of the present invention”) was used, and cultured in low oxygen in a state in which doxycycline (1 μg/mL) was further added so as to induce expression of the introduced gene (Passage 1; P1). Note here that on the first day of the start of making naïve, Y27632 (ROCK inhibitor) was added so as to be 10 μM, […]. On day 5 to 7 after the start of making naïve, subculturing was performed. The medium was removed, and then 350 μL of 0.25% Trypsin-EDTA was added in each well to cause reaction for one minute at 37° C. The reaction was stopped by Trypsin Inhibitor, and then 5 mL of medium was added thereto. Pipetting was carried out several times using PIPETTE AID to detach colonies of iPS cells from a sheet of feeder cells. The colonies were collected in a 15-mL tube. After centrifugation, a supernatant was removed, and 200 μL of medium was added, followed by pipetting using P200 […] about 40 times to be dissociated into single cells. […]

| Compound | maintenance of the naïve state of iPS cells after stopping induction of expression of the introduced gene [1] | expression of ESRRB [2] |
| --- | --- | --- |
| Cc1cccc(-c2nn(C(=S)Nc3ccccc3)cc2-c2ccnc3ccccc23)n1 [A83-01, 3-(6-methyl-2-pyridinyl)-N-phenyl-4-(4-quinolinyl)-1H-pyrazole-1-carbothioamide] | needed in order to maintain the naïve state of the iPS cells |  |
| COc1ccc2c(c1)c(C1=C(c3c[nH]c4ccccc34)C(=O)NC1=O)cn2CCCN(C)C [Go6983, 3-[1-[3-(dimethylamino)propyl]-5-methoxy-1H-indole-3-yl]-4-(1H-indole-3-yl)-1H-pyrrole-2,5-dione] |  | higher expression of ESRRB |
